Data published in ChEMBL document CHEMBL6153094, “Rationally designed highly amphipathic antimicrobial peptides demonstrating superior bacterial selectivity relative to the corresponding α-helix peptide” (Eur J Med Chem, 2025).
Active and inactive are the calls of the source. The rule behind the calls is not given here.

Experiments:
[1] = test system: Staphylococcus aureus; assay: Antimicrobial activity against methicillin-drug resistant Staphylococcus aureus clinical isolate 2 assessed as concentration required to eliminate 90% bacteria incubated for 18 hrs by broth-microdilution method; format: functional
[2] = test system: Staphylococcus aureus; assay: Antibacterial activity against methicillin-resistant Staphylococcus aureus ATCC 33591 infected in male Balb/c mouse model of full thickness skin wound assessed as reduction in bacterial load in skin at 1 mg/ml pre-infected with bacteria for 1 hrs followed by compound administration at 1,24,48 and 72 hrs post infection and measured 60 hrs post infection by agar plate method; format: functional, organism-based; conditions: time 59.0 hrs
[3] = test system: Staphylococcus aureus; assay: Antibacterial activity against Staphylococcus aureus ATCC 25923 incubated for 18 hrs in presence of FeCl3 by Mueller-Hinton broth based assay; format: functional, organism-based
[4] = test system: DNA; assay: Binding affinity to Staphylococcus aureus ATCC 25923 DNA at 2 times of MIC measured after 30 mins by agarose gel electrophoresis; format: nucleic-acid assay
[5] = test system: Staphylococcus aureus; assay: Antimicrobial activity against methicillin-drug resistant Staphylococcus aureus clinical isolate 54 assessed as concentration required to eliminate 90% bacteria incubated for 18 hrs by broth-microdilution method; format: functional
[6] = test system: Klebsiella pneumoniae; assay: Antibacterial activity against Klebsiella pneumoniae ATCC 700603 infected in male Balb/c mouse model of pneumonia assessed as decrease in bacterial load in lung at 2.5 to 10 mg/kg, ip administered at 4 and 12 hrs post-infected and measured after 24 hrs by agar plate method; format: functional, organism-based; conditions: dose 2.5-10 mg/kg, time 20.0 hrs
[7] = test system: Staphylococcus aureus; assay: Synergistic antimicrobial activity against gentamicin-resistant Staphylococcus aureus ATCC 25923 assessed as fractional inhibitory concentration index incubated for 18 hrs in presence of gentamicin by checkerboard microdilution method; format: functional
[8] = test system: Escherichia coli; assay: Antimicrobial activity against Escherichia coli ATCC 25922 assessed as inhibition of visible bacterial growth incubated for 18 hrs by broth microdilution method; format: functional
[9] = test system: Staphylococcus aureus; assay: Antibacterial activity against methicillin-resistant Staphylococcus aureus ATCC 33591 infected in male Balb/c mouse model of full thickness skin wound assessed as reduction in bacteria in skin wound at 1 mg/ml pre-infected with bacteria for 1 hrs followed by compound administration at 1,24,48 and 72 hrs post infection and measured after 10 days by photographic analysis; format: functional, organism-based; conditions: time 10.0 day
[10] = test system: Bacillus subtilis; assay: Antimicrobial activity against Bacillus subtilis ATCC 23857 assessed as inhibition of visible bacterial growth incubated for 18 hrs by broth microdilution method; format: functional
[11] = test system: Staphylococcus aureus; assay: Antibiofilm activity in Staphylococcus aureus ATCC 25923 assessed as inhibition of biofilm formation at 1/2 times of MIC incubated for 24 hrs by crystal violet staining based analysis relative to control; format: functional
[12] = Toxicity in male Balb/c mouse assessed as effect on survival at 63.5 mg/kg, ip measured after 7 days; format: organism-based; conditions: in vivo, 168 h, time 7 day
[13] = test system: Pseudomonas aeruginosa; assay: Antibacterial activity against Pseudomonas aeruginosa ATCC 27853 incubated for 18 hrs in presence of ZnCl2 by Mueller-Hinton broth based assay; format: functional, organism-based
[14] = test system: Pseudomonas aeruginosa; assay: Induction of morphological changes in Pseudomonas aeruginosa ATCC 27853 assessed as blister formation at 2 times of MIC incubated for 30 to 120 mins by SEM analysis; format: functional, organism-based; conditions: time 30-120 min
[15] = test system: Staphylococcus aureus; assay: Bactericidal activity against Staphylococcus aureus ATCC 25923 assessed as bacterial eradication at 2 times of MIC measured after 90 mins by time-kill kinetics assay; format: functional, organism-based
[16] = test system: Pseudomonas aeruginosa; assay: Antibiofilm activity in Pseudomonas aeruginosa ATCC 27853 assessed as inhibition of biofilm formation at 1 times of MIC incubated for 24 hrs by crystal violet staining based analysis relative to control; format: functional
[17] = test system: Cell membrane; assay: Disruption of membrane integrity in Staphylococcus aureus ATCC 25923 at 2 times of MIC incubated for 30 to 120 mins by SEM analysis; format: subcellular; conditions: time 30-120 min
[18] = test system: Pseudomonas aeruginosa; assay: Antibacterial activity against Pseudomonas aeruginosa ATCC 27853 incubated for 18 hrs in presence of MgCl2 by Mueller-Hinton broth based assay; format: functional, organism-based
[19] = test system: Pseudomonas aeruginosa; assay: Bactericidal activity against Pseudomonas aeruginosa ATCC 27853 assessed as bacterial eradication at 1 times of MIC measured after 60 mins by time-kill kinetics assay; format: functional, organism-based
[20] = test system: Staphylococcus aureus; assay: Bactericidal activity against Staphylococcus aureus ATCC 25923 assessed as bacterial killing measured upto 360 mins by time-kill kinetics assay; format: functional, organism-based
[21] = test system: Cell membrane; assay: Disruption of outer membrane integrity in Pseudomonas aeruginosa ATCC 27853 assessed as increase in fluorescence intensity at 4 times of MIC measured for 12 mins by NPN uptake assay; format: subcellular
[22] = test system: Pseudomonas aeruginosa; assay: Synergistic antimicrobial activity against gentamicin-resistant Pseudomonas aeruginosa ATCC 27853 assessed as fractional inhibitory concentration index incubated for 18 hrs in presence of gentamicin by checkerboard microdilution method; format: functional
[23] = test system: Staphylococcus aureus; assay: Antibacterial activity against Staphylococcus aureus ATCC 25923 assessed as fold change in MIC incubated for 18 hrs in presence of KCl by Mueller-Hinton broth based assay; format: functional
[24] = test system: Staphylococcus aureus; assay: Antibacterial activity against Staphylococcus aureus ATCC 25923 incubated for 18 hrs in presence of 10% serum by broth microdilution method; format: functional, organism-based
[25] = test system: Pseudomonas aeruginosa; assay: Bactericidal activity against Pseudomonas aeruginosa ATCC 27853 assessed as bacterial eradication at 2 times of MIC measured within 30 mins by time-kill kinetics assay; format: functional, organism-based
[26] = test system: Staphylococcus aureus; assay: Antibiofilm activity in Staphylococcus aureus ATCC 25923 assessed as inhibition of biofilm formation at 2 times of MIC incubated for 24 hrs by crystal violet staining based analysis relative to control; format: functional
[27] = test system: Pseudomonas aeruginosa; assay: Resistance fold, ratio of MIC for Pseudomonas aeruginosa ATCC 27853 measured after 20 passages in presence of gentamicin to MIC for Pseudomonas aeruginosa ATCC 27853 measured immediately in presence of gentamicin; format: functional
[28] = test system: Staphylococcus aureus; assay: Induction of morphological changes in Staphylococcus aureus ATCC 25923 assessed as content leakage at 2 times of MIC incubated for 30 to 120 mins by SEM analysis; format: functional, organism-based; conditions: time 30-120 min
[29] = test system: Staphylococcus aureus; assay: Antibacterial activity against methicillin-resistant Staphylococcus aureus ATCC 33591 infected in male Balb/c mouse model of full thickness skin wound assessed as reduction in number of inflammatory cells in skin at 1 mg/ml pre-infected with bacteria for 1 hrs followed by compound administration at 1,12 and 36 hrs post infection and measured after 10 days by H and E staining based analysis; format: functional, organism-based; conditions: time 10.0 day
[30] = test system: Pseudomonas aeruginosa; assay: Antibacterial activity against Pseudomonas aeruginosa ATCC 27853 incubated for 18 hrs in presence of FeCl3 by Mueller-Hinton broth based assay; format: functional, organism-based
[31] = test system: Pseudomonas aeruginosa; assay: Induction of morphological changes in Pseudomonas aeruginosa ATCC 27853 assessed as content leakage at 2 times of MIC incubated for 30 to 120 mins by SEM analysis; format: functional, organism-based; conditions: time 30-120 min
[32] = test system: Pseudomonas aeruginosa; assay: Antibacterial activity against Pseudomonas aeruginosa ATCC 27853 assessed as inhibition of bacterial growth compound pretreated with 256 microg/ml of LPS for 1 hrs followed by bacterial addition and measured after 18 hrs by absorbance based assay; format: functional, organism-based
[33] = test system: Staphylococcus aureus; assay: Resistance fold, ratio of MIC for Staphylococcus aureus ATCC 25923 measured after 20 passages to MIC for Staphylococcus aureus ATCC 25923 measured immediately; format: functional
[34] = test system: Enterococcus faecalis; assay: Antimicrobial activity against Enterococcus faecalis ATCC 29212 assessed as inhibition of visible bacterial growth incubated for 18 hrs by broth-dilution method; format: functional
[35] = Toxicity in male Balb/c mouse assessed as animal death at 127 mg/kg, ip measured within 2 days; format: organism-based; conditions: in vivo, 48 h, time < 2 day
[36] = test system: Pseudomonas aeruginosa; assay: Bactericidal activity against Pseudomonas aeruginosa ATCC 27853 assessed as bacterial eradication at 4 times of MIC measured within 30 mins by time-kill kinetics assay; format: functional, organism-based

H-RRWFRRWRRWFR-NH2
EC90 [1]: 2860 nM | Activity [2]: Active | Activity [3]: Active | Activity [4]: Active | EC90 [5]: 3.42 µM | Activity [6]: Active | fractional inhibitory concentration index (FICI) [7]: 0.25 | MIC [8]: 4 µM | Activity [9]: Active; Obvious Facilitation Of Wound Healing Not Observed | MIC [10]: 1 µM | inhibition (INH) [11]: 35% | Activity [12]: Non-toxic | Activity [13]: Active | Activity [14]: Active | Activity [15]: Active | inhibition (INH) [16]: >90% | Activity [17]: Active | Activity [18]: Active | Activity [19]: Active | Activity [20]: Dose-dependent-effect | Activity [21]: Active | fractional inhibitory concentration index (FICI) [22]: 0.5 | fold change (FC) [23]: 2 | Activity [24]: inactive | Activity [25]: Active | inhibition (INH) [26]: ~75% | fold change (FC) [27]: <=2 | Activity [28]: Active | Activity [29]: Active | Activity [30]: Active | Activity [31]: Active | Activity [32]: Not active; Compound Binds To Lps To Exert Its Activity | fold change (FC) [33]: <=2 | MIC [34]: 8 µM | Activity [35]: Toxic | Activity [36]: Active
